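How tested: cells in 96-well plates exposed to compound for 48 hours at five concentrations. Here, GI50 denotes the concentration required for 50% inhibition of growth.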 Activity calls are given as the source filed them. No stated cut-off is given here; in the data, active = GI50 up to about 1.1 µM and inactive = higher.
How the values were obtained:
Assay in all cases: inhibition of tumour cell growth, NCI panel, 48 h
A498 = system: A498
A549 = system: A549
COLO 205 = system: COLO 205
EKVX = system: EKVX
HL-60 = system: HL-60
Hs-578T = system: Hs-578T
IGROV-1 = system: IGROV-1
MDA-N = system: MDA-N
NCI/ADR-RES = system: NCI/ADR-RES
SF-539 = system: SF-539
SK-MEL-5 = system: SK-MEL-5
SN12C = system: SN12C
SNB-19 = system: SNB-19
HCC 2998 = system: HCC 2998
HCT-15 = system: HCT-15
OVCAR-5 = system: OVCAR-5
PC-3 = system: PC-3
RXF 393 = system: RXF 393
SNB-75 = system: SNB-75

SMILES | GI50 (A498) | GI50 (A549) | GI50 (COLO 205) | GI50 (EKVX) | GI50 (HL-60) | GI50 (Hs-578T) | GI50 (IGROV-1) | GI50 (MDA-N) | GI50 (NCI/ADR-RES) | GI50 (SF-539) | GI50 (SK-MEL-5) | GI50 (SN12C) | GI50 (SNB-19) | GI50 (HCC 2998) | GI50 (HCT-15) [µM] | GI50 (OVCAR-5) | GI50 (PC-3) | GI50 (RXF 393) | GI50 (SNB-75)
CCc1n[nH]c(=O)n1O | > 100 µM (inactive) | > 100 µM (inactive) | > 100 µM (inactive) | > 100 µM (inactive) | > 100 µM (inactive) | > 100 µM (inactive) | > 100 µM (inactive) | > 100 µM (inactive) | > 100 µM (inactive) | > 100 µM (inactive) | > 100 µM (inactive) | > 100 µM (inactive) | > 100 µM (inactive) |  |  |  |  |  | 
COC(=O)C1=C(C)NC(C)=C(C(=O)OC)C1c1ccc(/[N+]([O-])=C/c2ccccc2)cc1 |  | 96.6 µM (inactive) | 19 µM (inactive) | 71.6 µM (inactive) | 15.1 µM (inactive) | 41.3 µM (inactive) | > 100 µM (inactive) | 34.4 µM (inactive) | 66.5 µM (inactive) | > 100 µM (inactive) | > 100 µM (inactive) | 51.5 µM (inactive) | 94.2 µM (inactive) | > 100 µM (inactive) | 42.5 | > 100 µM (inactive) | 64.1 µM (inactive) | 19.7 µM (inactive) | 34.9 µM (inactive)
O=C1NC(=O)c2ccccc2/C1=C/c1ccc2c(c1)OCO2 | > 100 µM (inactive) | 34 µM (inactive) | > 10 µM (inactive) | 51.1 µM (inactive) | 2.72 µM (inactive) | 10.4 µM (inactive) | 23.7 µM (inactive) | 26 µM (inactive) | 17.9 µM (inactive) | 21.5 µM (inactive) | 15.1 µM (inactive) | 19.9 µM (inactive) | 32 µM (inactive) | 14.6 µM (inactive) | 15.6 | 29.2 µM (inactive) |  | 3.29 µM (inactive) | 28.1 µM (inactive)
c1ccc(Cn2c(-c3ccc(-c4ccccc4)cc3)cc3ccccc32)cc1 |  | > 100 µM (inactive) | > 100 µM (inactive) | > 100 µM (inactive) | > 100 µM (inactive) | 24.1 µM (inactive) | 67.5 µM (inactive) | > 100 µM (inactive) | > 100 µM (inactive) | > 100 µM (inactive) | > 100 µM (inactive) | > 100 µM (inactive) | > 100 µM (inactive) | > 100 µM (inactive) | > 100 | > 100 µM (inactive) | > 100 µM (inactive) |  | 58.1 µM (inactive)
CCSc1c(C)c2c(n(Cc3ccc(OC)cc3)c1=O)Cc1ccccc1C2 |  | 21.9 µM (inactive) | 35.6 µM (inactive) | 21.4 µM (inactive) | 6.17 µM (inactive) | 24.5 µM (inactive) | 19 µM (inactive) | 10.4 µM (inactive) | 5.08 µM (inactive) | 19.2 µM (inactive) | 15.4 µM (inactive) | 12.8 µM (inactive) | 18.2 µM (inactive) | 13.6 µM (inactive) | 4.52 | 46.9 µM (inactive) | 15.3 µM (inactive) | 32.1 µM (inactive) | 21.9 µM (inactive)
COC(=O)[C@H](Cc1ccccc1)NC(=O)NCCN(CCNC(=O)N[C@@H](Cc1ccccc1)C(=O)OC)C(=O)N[C@@H](Cc1ccccc1)C(=O)OC | 32.9 µM (inactive) | 29 µM (inactive) | 21.9 µM (inactive) | 30.6 µM (inactive) |  | 23.8 µM (inactive) |  | 18.2 µM (inactive) | > 100 µM (inactive) | 18.8 µM (inactive) | 20.7 µM (inactive) | > 10 µM (inactive) | 24.7 µM (inactive) | 20.3 µM (inactive) | > 50.1 | 20.4 µM (inactive) | 22.3 µM (inactive) | 16.9 µM (inactive) | 20.7 µM (inactive)
Oc1ccc(/C=N/c2nccs2)c(O)c1 |  | > 100 µM (inactive) | 33.3 µM (inactive) | > 100 µM (inactive) |  | > 100 µM (inactive) | > 100 µM (inactive) | > 100 µM (inactive) | > 100 µM (inactive) | > 100 µM (inactive) | > 100 µM (inactive) |  | > 100 µM (inactive) | 30.2 µM (inactive) | > 100 | > 100 µM (inactive) | > 100 µM (inactive) | > 100 µM (inactive) | > 100 µM (inactive)
Cc1nc(-c2cc3cc([N+](=O)[O-])ccc3oc2=O)cs1 |  | > 100 µM (inactive) | > 100 µM (inactive) | > 100 µM (inactive) | 31.8 µM (inactive) | > 100 µM (inactive) | > 100 µM (inactive) | > 100 µM (inactive) |  | > 100 µM (inactive) | > 100 µM (inactive) | > 100 µM (inactive) | > 100 µM (inactive) | > 100 µM (inactive) | > 100 | > 100 µM (inactive) | > 100 µM (inactive) | > 100 µM (inactive) | 1.25 µM (inactive)
COc1ccc(-n2cnc3c(NC(CCSC)C(=O)O)ncnc32)cc1 (configuration not stated) | > 100 µM (inactive) | > 100 µM (inactive) | > 100 µM (inactive) | > 100 µM (inactive) |  | > 100 µM (inactive) | > 100 µM (inactive) | > 100 µM (inactive) | > 100 µM (inactive) |  | > 100 µM (inactive) | > 100 µM (inactive) | > 100 µM (inactive) | > 100 µM (inactive) | > 100 | > 100 µM (inactive) | > 100 µM (inactive) |  | > 100 µM (inactive)
COC(=NCCC1=CCCCC1)OC | > 100 µM (inactive) | 69.3 µM (inactive) | 16.3 µM (inactive) | 69 µM (inactive) |  | > 100 µM (inactive) | 32.8 µM (inactive) | 95.3 µM (inactive) | 58.9 µM (inactive) |  | 34.4 µM (inactive) |  | > 100 µM (inactive) | 22 µM (inactive) | 82 | 51.3 µM (inactive) | 85.7 µM (inactive) | > 100 µM (inactive) | 71.6 µM (inactive)
O=C(O)C/C(=C\c1ccco1)C(=O)O | > 100 µM (inactive) | > 100 µM (inactive) | > 100 µM (inactive) | > 100 µM (inactive) | > 100 µM (inactive) |  | > 100 µM (inactive) | > 100 µM (inactive) | > 100 µM (inactive) | > 100 µM (inactive) | > 100 µM (inactive) | > 100 µM (inactive) | > 100 µM (inactive) |  | > 100 | > 100 µM (inactive) | > 100 µM (inactive) | > 100 µM (inactive) | > 100 µM (inactive)
COc1ccccc1/C=C1\Sc2scc(-c3ccc(O)c(O)c3)[n+]2C1=O |  | 45.8 µM (inactive) | 19.6 µM (inactive) | 46.6 µM (inactive) | 2.28 µM (inactive) | 88.3 µM (inactive) | 15.9 µM (inactive) | 23.9 µM (inactive) | 27.3 µM (inactive) | 20.7 µM (inactive) | 18.1 µM (inactive) | 22.5 µM (inactive) | 35.8 µM (inactive) | 16.6 µM (inactive) | 16.5 | 26.5 µM (inactive) | 28.2 µM (inactive) | 17.7 µM (inactive) | 
Cc1ccc(-c2n[nH]c(=O)n2NC(=O)c2ccccc2C(=O)O)cc1 |  | > 100 µM (inactive) |  |  | > 100 µM (inactive) | > 100 µM (inactive) | > 100 µM (inactive) | > 100 µM (inactive) | > 100 µM (inactive) | > 100 µM (inactive) | > 100 µM (inactive) | > 100 µM (inactive) | > 100 µM (inactive) | > 100 µM (inactive) | > 100 |  | > 100 µM (inactive) | > 100 µM (inactive) | > 100 µM (inactive)
Cc1ccc2c(O)cc(-c3sc4ccccc4c3C)nc2n1 | 22.4 µM (inactive) | 22.7 µM (inactive) | 23.4 µM (inactive) | 25.5 µM (inactive) |  | 19.9 µM (inactive) | 19.8 µM (inactive) | 13.2 µM (inactive) | 17.1 µM (inactive) |  |  | 29 µM (inactive) | 29.9 µM (inactive) |  | 17.7 | 34 µM (inactive) |  |  | 17.3 µM (inactive)
CCc1n[nH]c(=O)n1CCO | > 100 µM (inactive) | > 100 µM (inactive) | > 100 µM (inactive) | > 100 µM (inactive) | > 100 µM (inactive) |  | > 100 µM (inactive) | > 100 µM (inactive) | > 100 µM (inactive) | > 100 µM (inactive) | > 100 µM (inactive) | > 100 µM (inactive) | > 100 µM (inactive) | > 100 µM (inactive) | > 100 | > 100 µM (inactive) | > 100 µM (inactive) |  | 
CC(=O)Oc1ccc2c(c1)CC[C@@H]1C2CC[C@]2(C)C(=O)NC(=O)CC12 (some centres not stated) | > 100 µM (inactive) | > 100 µM (inactive) | > 100 µM (inactive) | 23.9 µM (inactive) | > 100 µM (inactive) | > 100 µM (inactive) | > 100 µM (inactive) | > 100 µM (inactive) |  | > 100 µM (inactive) | > 100 µM (inactive) | > 100 µM (inactive) | > 100 µM (inactive) | > 100 µM (inactive) |  | > 100 µM (inactive) | > 100 µM (inactive) | > 100 µM (inactive) | > 100 µM (inactive)
N#CCN(CC#N)C1CC=CCC1N(CC#N)CC#N (configuration not stated) |  | > 100 µM (inactive) | > 100 µM (inactive) | > 100 µM (inactive) | > 100 µM (inactive) | > 100 µM (inactive) | > 100 µM (inactive) | > 100 µM (inactive) | > 100 µM (inactive) | > 100 µM (inactive) | > 100 µM (inactive) | > 100 µM (inactive) | > 100 µM (inactive) |  | > 100 | > 100 µM (inactive) | > 100 µM (inactive) | > 100 µM (inactive) | 
